The values that follow are results of earlier work, collected in article PMC7898037, “Improving mitochondria and ER stability helps eliminate upper motor neuron degeneration that occurs due to mSOD1 toxicity and TDP‐43 pathology” (Clinical and Translational Medicine, 2021).

Data set [1] concerns SOD1^G93A‐expressing PC12 cell. The conditions noted are these: PC12 cell‐based assay; cited from earlier work.
Data set [2] deals with cortical neurons. Further details: method as in earlier work. The following applies: ref 53 (compound 2), ref 54 (NU‐9); cited from earlier work.
Data set [3] has as its system SOD1 model mouse. The following applies: cited from earlier work.

For `O=C1CC(=O)CC(c2ccc(F)cc2)C1` [compound 1], in data set [1], the “effect on mSOD1‐induced protein aggregation” value is recorded as “inhibit mSOD1‐induced protein aggregation” and the “effect on mSOD1‐mediated toxicity” value is “reduce mSOD1‐mediated toxicity”. Consider `O=C1CC(=O)CC(c2cc(C(F)(F)F)cc(C(F)(F)F)c2)C1` [compound 2], for which the penetration into neurons result in data set [2] was “did not penetrate into neurons”. For `Nc1nc2ccc(OC(F)(F)F)cc2s1` [riluzole], the “longevity of the misfolded SOD1 (mSOD1) mouse model” value in data set [3] was “failed to improve the longevity”.
